The values that follow come from patent publication US20040101888A1, “Vector system used in screening active substances” (Max-Delbruck-Centrum Fur Molekulare Medizin, priority 2001, published 2004).

This test deals with TCRS containing NIH-3T3 fibroblasts cells. Put plainly: Detection of cellular translational control activities by TCRS reporter in drug-treated cells. Conditions: TCRS containing NIH-3T3 fibroblasts treated with drug. The class given is cell-based. From the text: TCRS functions in cell lines. To examine the applicability of the TCRS in vertebrate cells we introduced the improved TCRS-vector into fibroblasts by transient transfection. […] Importantly, removal of the regulatory uORF by […] point mutation of its translation initiation site results in loss of translational controlled SR protein expression. Accordingly, the TCRS can be used to screen for drugs or to monitor pharmacological effects in tissue culture.
To examine the potential of the TCRS for detection of changes in translation control activities by external supplied drugs, we treated the TCRS containing NIH-3T3 fibroblasts cells with aminopurine and rapamycin, respectively.
Treatment with translational active drugs, such as rapamycin or aminopurine, result in differential activation of distinct translation control pathways, causing a shift in reporter protein expression. Shift in reporter expression was also observed with co-transfected expression vectors encoding eucaryotic translation initiation factors eIF2or eIF4E, or mutants thereof. Reporter protein expression shifts were dependent on an intact uORF.

On to aminopurine, for which the “changes of the reporter peptide levels (PR and SR reporter protein expression from TCRS)” value was “Differential changes of the peptide levels were observed”.
